Like-named read-outs stand apart in the source and are kept apart here.
Assay: Single ascending dose and food-effect pharmacokinetics of naringin tablets in healthy humans
Type: in vivo, human
Details: for half-life / effect of a high-fat diet on t1/2, Tmax, Cmax and AUC / Tmax / AUC(0-inf) / AUC(0-t) / Cmax / MRT last / MRT inf / CL: human; for half-life / Tmax / AUC(0-inf) / AUC(0-t) / Cmax / MRT last / MRT inf: plasma; for effect of a high-fat diet on t1/2, Tmax, Cmax and AUC: food-effect trial, naringin 160 mg p.o.; for MRT last: read-out: MRT0-t; for MRT inf: read-out: MRT0-∞
From the text: Participants were healthy males and females, 18 to 40 years old, ≥50 kg weight, 19 to 25 kg m^2 body mass index. The health condition of participants was considered good based on the screened medical history, physical examination, vital signs, electrocardiogram, and laboratory examination. […] Clinical laboratory test results (sodium, potassium, total protein, white blood and red blood cell counts, hematocrit, hemoglobin, platelet count, aspartate aminotransferase, alanine aminotransferase, gamma-glutamyl transferase, blood urea nitrogen, creatinine, total bilirubin, alkaline phosphatase, creatine kinase, lactate dehydrogenase, calcium, chloride, phosphorus, albumin, globulin, cholesterol, triglycerides, glucose, uric acid, and urinalysis) had to be within normal ranges, without other clinically significant abnormalities. During the study duration, participants were required to use barrier contraception with spermicide during sexual intercourse. During the trial, female participants were in the nonmenstrual, nonpregnant, and nonlactation periods, and they were nonsmokers. Participants were not planning a pregnancy within 6 months of the clinical trials, they communicated with the investigator, understood and complied with the study requirements, and signed informed consent.
Using the Statistical Analysis System (SAS) software (Version 9.4, SAS Institute Inc., Cary, NC, USA), subject randomization and blinding/masking were performed by statisticians from the Department of Health Statistics at the Second Military Medical University.
All blood samples were transferred into heparin-treated centrifuge tubes and centrifuged for 10 min at 4,000 rpm and 4°C. All human urine samples were mixed and transferred (4 ml) into storage tubes. All biological samples were stored at −80°C.
The optimal volume and activity in unit volume of enzyme solution [0.2 M acetic acid/water solution: 0.2 M ammonium acetate/water solution, 15:35 (v/v)] were determined through a pretest of the enzyme (rat plasma, 10 μl, 10 U μl^-1; dog plasma, 10 μl, 10 U μl^-1; human plasma, 20 μl, 20 U μl^-1; human urine, 10 μl, 10 U μl^-1). […] To each fecal sample, 9-fold methanol-normal saline (2:1, v/v) was added, mixed (18,000 rpm, 15 min) by vortexing and centrifuged (10 min, 9,000 rpm, 4°C). […] Then, all plasma, urine, and fecal samples were extracted with ethyl acetate (rat plasma, 800 μl; dog plasma, 1,000 μl; human plasma, 3,000 μl; human urine, 3,000 μl; human feces, 3,000 μl) for at least 3 min by vortexing, centrifuged for 10 min at 3,900 rpm and 4°C; supernatants were transferred into centrifuge tubes and dried with N2. The solid material was dissolved with acetonitrile-water (1:1, v/v) and injected into the ultra high-performance liquid chromatography coupled with triple quadrupole mass spectrometry (UHPLC/MS/MS) system as described below.
The analysis of nonclinical and clinical samples was performed with a UHPLC/MS/MS system that consisted of a Shimadzu Nexera X2 ultra high-performance liquid chromatography (UHPLC) (Shimadzu Corp., Kyoto, Japan) coupled with an AB Sciex API4000 triple-quadrupole mass spectrometry (MS/MS) system (AB Sciex, Foster City, CA, USA) equipped with an electrospray ionization source and controlled by Analyst (v. 1.6.2) software. […] The mobile phase consisted of 0.1% formic acid (v/v) in water (A) and 0.1% formic acid in acetonitrile (B) using a linear gradient of 90% A (0–0.5 min), 90 to 60% A (0.5–1.5 min), 60% to 40% A (1.5–3.5 min), 40% to 10% A (3.5–4.5 min), 10% A (4.5–5.5 min), 10% to 90% A (5.5–6.0 min), and 90% A (6.0–7.5 min) for plasma; and 80% A (0–0.2 min), 80 to 64% A (0.2–2.0 min), 64% to 63% A (2.0–4.4 min), 63% to 0% A (4.4–4.5 min), 0% A (4.5–5.5 min), 0% to 90% A (5.5–5.6 min), 90% A (5.6–5.9 min), 90% to 35% A (5.9–6.0 min), 35% A (6.0–6.2 min), 35 to 80% A (6.2–6.3 min), and 80% A (6.3–7.5 min) for urine and feces.

[1] = both sexes, oral, naringin in humans, clinical studies overall
[2] = both sexes, po, 40 mg, naringin 40 mg p.o. single dose
[3] = both sexes, po, 80 mg, naringin 80 mg p.o. single dose
[4] = both sexes, po, 160 mg, naringin 160 mg (high-fat diet) p.o. single dose
[5] = both sexes, po, 160 mg, naringin 160 mg p.o. single dose
[6] = both sexes, po, 320 mg, naringin 320 mg p.o. single dose
[7] = both sexes, po, 480 mg, naringin 480 mg p.o. single dose
[8] = female, po, 40 mg, naringin 40 mg p.o. single dose
[9] = female, po, 80 mg, naringin 80 mg p.o. single dose
[10] = female, po, 160 mg, naringin 160 mg p.o. single dose
[11] = female, po, 160 mg, naringin 160 mg p.o. single dose, high-fat diet group, female
[12] = male, po, 40 mg, naringin 40 mg p.o. single dose
[13] = male, po, 80 mg, naringin 80 mg p.o. single dose
[14] = male, po, 160 mg, naringin 160 mg p.o. single dose
[15] = male, po, 160 mg, naringin 160 mg p.o. single dose, high-fat diet group, male

Question: With O=C1C[C@@H](c2ccc(O)cc2)Oc2cc(O)cc(O)c21 [naringenin, Naringenin] as the compound, how does the half-life (both sexes, oral, naringenin in humans, studies overall) read?
Answer: 2.6 ± 1.89 h

Question: And the “effect of a high-fat diet on t1/2, Tmax, Cmax and AUC” value?
Answer: insignificantly altered

Question: What about the lag-time in plasma (human plasma, after p.o. naringin) of the same compound?
Answer: 5.74 ± 2.38 h

Question: What about the “time for concentrations to increase to Cmax after the lag-time” value (humans, after p.o. naringin) of the same compound?
Answer: about 3.62 ± 3.19 h

Question: With C[C@@H]1O[C@@H](O[C@H]2[C@H](Oc3cc(O)c4c(c3)O[C@H](c3ccc(O)cc3)CC4=O)O[C@H](CO)[C@@H](O)[C@@H]2O)[C@H](O)[C@H](O)[C@H]1O [naringin, Naringin] as the compound, how does the Tmax [1] read?
Answer: 2.09 ± 1.15 h

Question: And the half-life [1]?
Answer: 2.69 ± 1.77 h

Question: What about the AUC(0-inf) [2] of the same compound?
Answer: 9.99 ± 4.22 ng·h/mL

Question: What about the AUC(0-t) [2] of the same compound?
Answer: 7.61 ± 3.5 ng·h/mL

Question: And the Cmax [2]?
Answer: 2.24 ± 0.67 ng/mL

Question: What about the Tmax [2] of the same compound?
Answer: 1.97 ± 1.11 h

Question: What about the half-life [2] of the same compound?
Answer: 2.48 ± 1.64 h

Question: What about the MRT last [2] of the same compound?
Answer: 2.66 ± 0.443 h

Question: And the MRT inf [2]?
Answer: 4.9 ± 1.69 h

Question: What about the AUC(0-inf) [3] of the same compound?
Answer: 12.2 ± 3.19 ng·h/mL

Question: What about the AUC(0-t) [3] of the same compound?
Answer: 9.27 ± 3.37 ng·h/mL

Question: What about the Cmax [3] of the same compound?
Answer: 2.94 ± 1.17 ng/mL

Question: What about the Tmax [3] of the same compound?
Answer: 2.09 ± 1.39 h

Question: What about the half-life [3] of the same compound?
Answer: 1.9 ± 1.22 h

Question: What about the MRT last [3] of the same compound?
Answer: 2.8 ± 0.543 h

Question: And the MRT inf [3]?
Answer: 3.83 ± 1.69 h

Question: What about the AUC(0-inf) [4] of the same compound?
Answer: 18.2 ± 5.81 ng·h/mL

Question: What about the AUC(0-t) [4] of the same compound?
Answer: 12.8 ± 4.74 ng·h/mL

Question: And the Cmax [4]?
Answer: 3.04 ± 1.15 ng/mL

Question: And the Tmax [4]?
Answer: 2.66 ± 1.87 h

Question: And the half-life [4]?
Answer: 3.11 ± 1.95 h

Question: What about the MRT last [4] of the same compound?
Answer: 3.45 ± 1.22 h

Question: What about the MRT inf [4] of the same compound?
Answer: 6.19 ± 2.77 h

Question: What about the AUC(0-inf) [5] of the same compound?
Answer: 22.4 ± 9.36 ng·h/mL

Question: And the AUC(0-t) [5]?
Answer: 15.7 ± 7.51 ng·h/mL

Question: And the Cmax [5]?
Answer: 4.29 ± 2.63 ng/mL

Question: And the Tmax [5]?
Answer: 2.5 ± 1.41 h

Question: And the half-life [5]?
Answer: 3.64 ± 3.01 h

Question: And the MRT last [5]?
Answer: 3.3 ± 1.12 h

Question: And the MRT inf [5]?
Answer: 6.54 ± 4.41 h

Question: And the AUC(0-inf) [6]?
Answer: 39.8 ± 32.2 ng·h/mL

Question: What about the AUC(0-t) [6] of the same compound?
Answer: 37.5 ± 32.2 ng·h/mL

Question: And the Cmax [6]?
Answer: 10.9 ± 12.4 ng/mL

Question: And the Tmax [6]?
Answer: 1.66 ± 0.99 h

Question: And the half-life [6]?
Answer: 2.51 ± 1.58 h

Question: What about the MRT last [6] of the same compound?
Answer: 3.17 ± 0.677 h

Question: And the MRT inf [6]?
Answer: 4.01 ± 1.05 h

Question: And the AUC(0-inf) [7]?
Answer: 21.2 ± 7.95 ng·h/mL

Question: And the AUC(0-t) [7]?
Answer: 19.4 ± 7.86 ng·h/mL

Question: And the Cmax [7]?
Answer: 5.69 ± 2.8 ng/mL

Question: And the Tmax [7]?
Answer: 1.66 ± 0.834 h

Question: And the half-life [7]?
Answer: 2.01 ± 0.498 h

Question: And the MRT last [7]?
Answer: 3.08 ± 0.704 h

Question: What about the MRT inf [7] of the same compound?
Answer: 3.86 ± 0.779 h

Question: What about the AUC(0-inf) [8] of the same compound?
Answer: 5.83 ± 0.737 ng·h/mL

Question: What about the AUC(0-t) [8] of the same compound?
Answer: 4.64 ± 1.01 ng·h/mL

Question: What about the Cmax [8] of the same compound?
Answer: 1.92 ± 0.516 ng/mL

Question: And the Tmax [8]?
Answer: 2.67 ± 1.53 h

Question: And the half-life [8]?
Answer: 1.49 ± 0.849 h

Question: What about the AUC(0-inf) [9] of the same compound?
Answer: 11.5 ± 2.69 ng·h/mL

Question: And the AUC(0-t) [9]?
Answer: 10.2 ± 2.28 ng·h/mL

Question: And the Cmax [9]?
Answer: 3.3 ± 0.916 ng/mL

Question: And the Tmax [9]?
Answer: 1.44 ± 0.657 h

Question: What about the half-life [9] of the same compound?
Answer: 1.48 ± 0.448 h

Question: What about the AUC(0-inf) [10] of the same compound?
Answer: 25.9 ± 8.47 ng·h/mL

Question: What about the AUC(0-t) [10] of the same compound?
Answer: 17.8 ± 5.04 ng·h/mL

Question: And the Cmax [10]?
Answer: 3.44 ± 1.08 ng/mL

Question: What about the Tmax [10] of the same compound?
Answer: 3.25 ± 1.71 h

Question: What about the half-life [10] of the same compound?
Answer: 4.57 ± 3.65 h

Question: What about the AUC(0-inf) [11] of the same compound?
Answer: 20.9 ± 4.78 ng·h/mL

Question: And the AUC(0-t) [11]?
Answer: 16.1 ± 3.27 ng·h/mL

Question: What about the Cmax [11] of the same compound?
Answer: 3.78 ± 1.26 ng/mL

Question: And the Tmax [11]?
Answer: 2.88 ± 2.02 h

Question: And the half-life [11]?
Answer: 2.54 ± 1.96 h

Question: What about the “effect of a high-fat diet on t1/2, Tmax, Cmax and AUC” value of the same compound?
Answer: insignificantly altered

Question: And the AUC(0-inf) [12]?
Answer: 12.5 ± 3.18 ng·h/mL

Question: What about the AUC(0-t) [12] of the same compound?
Answer: 9.39 ± 3.23 ng·h/mL

Question: And the Cmax [12]?
Answer: 2.43 ± 0.727 ng/mL

Question: And the Tmax [12]?
Answer: 1.55 ± 0.622 h

Question: And the half-life [12]?
Answer: 3.07 ± 1.78 h

Question: What about the AUC(0-inf) [13] of the same compound?
Answer: 13.2 ± 4.16 ng·h/mL

Question: What about the AUC(0-t) [13] of the same compound?
Answer: 8.35 ± 4.36 ng·h/mL

Question: And the Cmax [13]?
Answer: 2.58 ± 1.43 ng/mL

Question: What about the Tmax [13] of the same compound?
Answer: 2.75 ± 1.71 h

Question: And the half-life [13]?
Answer: 2.46 ± 1.83 h

Question: And the AUC(0-inf) [14]?
Answer: 17.7 ± 9.93 ng·h/mL

Question: And the AUC(0-t) [14]?
Answer: 13.7 ± 9.73 ng·h/mL

Question: And the Cmax [14]?
Answer: 5.14 ± 3.6 ng/mL

Question: And the Tmax [14]?
Answer: 1.75 ± 0.5 h

Question: And the half-life [14]?
Answer: 2.41 ± 1.79 h

Question: And the AUC(0-inf) [15]?
Answer: 14.7 ± 5.83 ng·h/mL

Question: What about the AUC(0-t) [15] of the same compound?
Answer: 9.56 ± 3.57 ng·h/mL

Question: And the Cmax [15]?
Answer: 2.3 ± 0.201 ng/mL

Question: What about the Tmax [15] of the same compound?
Answer: 2.44 ± 1.98 h

Question: What about the half-life [15] of the same compound?
Answer: 3.86 ± 2.02 h

Question: What about the CL (naringin 40 mg p.o. single dose) of the same compound?
Answer: 1120 ± 605 mL/min/kg

Question: What about the CL (naringin 80 mg p.o. single dose) of the same compound?
Answer: 1720 ± 832 mL/min/kg

Question: What about the CL (naringin 160 mg (high-fat diet) p.o. single dose) of the same compound?
Answer: 2870 ± 1070 mL/min/kg

Question: What about the CL (naringin 160 mg p.o. single dose) of the same compound?
Answer: 2400 ± 1030 mL/min/kg

Question: And the CL (naringin 320 mg p.o. single dose)?
Answer: 3370 ± 2180 mL/min/kg

Question: And the CL (naringin 480 mg p.o. single dose)?
Answer: 7950 ± 6200 mL/min/kg

From paper PMC7118210 (Frontiers in Pharmacology, 2020)
